From ChEMBL document CHEMBL1130223 (J Med Chem, 1997)
The source made the active and inactive calls. No cut-off for these calls is given here.

How the values were obtained:
[1] = molecular target: 5-hydroxytryptamine receptor 2A (Rattus norvegicus, UniProt P14842); test: Inhibition of radiolabeled [3H]-Ketanserin ligand binding to 5-hydroxytryptamine 2A receptor
NG108-15 [2] = test: Effective concentration for uptake of [14C]guanidinium on NG108-15 cells; format: functional, cell-based; conditions: Murinae
[3] = Potency to cross blood-brain barrier was assessed; format: functional
Rattus norvegicus = organism: Rattus norvegicus; test: Inhibitory activity for 5-HT uptake was determined using [3H]- Citalopram; format: functional
[4] = molecular target: T1, Serotonin 3 (5-HT3) receptor (Rattus norvegicus, UniProt P35563+Q9JJ16); test: Inhibition of [3H]BRL-43694 binding to 5-hydroxytryptamine 3 receptor of rat cortical homogenate.
T1 sequence (P35563 whole entry): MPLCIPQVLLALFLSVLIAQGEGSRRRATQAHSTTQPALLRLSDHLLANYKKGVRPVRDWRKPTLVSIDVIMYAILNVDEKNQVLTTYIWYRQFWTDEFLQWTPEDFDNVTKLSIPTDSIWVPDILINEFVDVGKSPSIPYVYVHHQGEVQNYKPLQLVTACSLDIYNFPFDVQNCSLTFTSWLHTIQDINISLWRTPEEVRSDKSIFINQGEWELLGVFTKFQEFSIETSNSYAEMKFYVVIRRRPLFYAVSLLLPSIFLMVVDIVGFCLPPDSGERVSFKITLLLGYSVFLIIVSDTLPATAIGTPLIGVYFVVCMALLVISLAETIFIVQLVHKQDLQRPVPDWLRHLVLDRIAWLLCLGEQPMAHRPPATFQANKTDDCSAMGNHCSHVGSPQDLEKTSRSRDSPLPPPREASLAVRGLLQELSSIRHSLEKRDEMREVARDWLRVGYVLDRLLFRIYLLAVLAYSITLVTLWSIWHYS
T1 sequence (Q9JJ16 whole entry): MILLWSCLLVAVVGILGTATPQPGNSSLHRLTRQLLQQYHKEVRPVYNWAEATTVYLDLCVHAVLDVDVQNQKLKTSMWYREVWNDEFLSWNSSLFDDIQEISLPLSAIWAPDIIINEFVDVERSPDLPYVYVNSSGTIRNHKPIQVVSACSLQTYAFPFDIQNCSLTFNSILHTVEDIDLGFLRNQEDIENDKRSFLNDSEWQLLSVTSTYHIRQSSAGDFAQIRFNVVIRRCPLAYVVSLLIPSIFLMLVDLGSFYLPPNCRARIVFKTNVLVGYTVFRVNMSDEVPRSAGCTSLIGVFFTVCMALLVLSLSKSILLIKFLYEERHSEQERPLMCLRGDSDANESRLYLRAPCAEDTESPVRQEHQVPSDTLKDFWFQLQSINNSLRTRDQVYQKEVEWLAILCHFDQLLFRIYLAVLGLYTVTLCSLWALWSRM

[5] = molecular target: T2, Serotonin 3 (5-HT3) receptor (Rattus norvegicus) (UniProt P35563+Q9JJ16); test: Dose required to stimulate cardiac 5-HT3 receptors evaluated by using von Bezold-Jarisch reflex test in urethane-anesthetized rats; format: functional
[6] = molecular target: T3, 5-hydroxytryptamine receptor 1A (Rattus norvegicus, UniProt P19327); test: Inhibition of radiolabeled [3H]-8-OH-DPAT ligand binding to 5-hydroxytryptamine 1A receptor
T3 sequence (P19327 whole entry): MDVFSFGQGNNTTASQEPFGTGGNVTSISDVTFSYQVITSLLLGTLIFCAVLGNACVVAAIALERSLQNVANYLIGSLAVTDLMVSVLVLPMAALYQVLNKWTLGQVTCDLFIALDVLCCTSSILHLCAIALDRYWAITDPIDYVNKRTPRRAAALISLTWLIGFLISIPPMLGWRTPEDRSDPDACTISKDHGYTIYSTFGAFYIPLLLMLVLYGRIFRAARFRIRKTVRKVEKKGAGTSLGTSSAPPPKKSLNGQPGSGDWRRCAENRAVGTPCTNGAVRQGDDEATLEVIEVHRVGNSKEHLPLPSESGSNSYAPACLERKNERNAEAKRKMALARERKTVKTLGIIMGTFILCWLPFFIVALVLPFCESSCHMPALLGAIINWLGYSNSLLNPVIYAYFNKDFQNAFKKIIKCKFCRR

[7] = molecular target: T2, Serotonin 3 (5-HT3) receptor (Rattus norvegicus); test: The stimulation of cardiac 5-HT3 receptors evaluated by using von Bezold-Jarisch reflex test inurethane-anesthetized rats; Pure Antagonist; format: functional; conditions: filed as antagonist
[8] = molecular target: 5-hydroxytryptamine receptor 1B (Rattus norvegicus, UniProt P28564); test: Inhibition of radiolabeled [3H]-5-HT ligand binding to 5-hydroxytryptamine 1B receptor
[9] = molecular target: 5-hydroxytryptamine receptor 4 (Rattus norvegicus, UniProt Q62758); test: Inhibition of radiolabeled [3H]GR-113808 ligand binding to 5-hydroxytryptamine 4 receptor
NG108-15 [10] = test: Agonist/antagonist activity by observing the uptake of [14C]guanidinium, on the neuroblastoma-glioma hybrid NG108-15 cells; pure agonist; format: functional, cell-based; conditions: filed as agonist
[11] = molecular target: T4, 5-hydroxytryptamine receptor 2C (Rattus norvegicus, UniProt P08909); test: Inhibition of radiolabeled [3H]mesulergine ligand binding to 5-hydroxytryptamine 2C receptor
T4 sequence (P08909 whole entry): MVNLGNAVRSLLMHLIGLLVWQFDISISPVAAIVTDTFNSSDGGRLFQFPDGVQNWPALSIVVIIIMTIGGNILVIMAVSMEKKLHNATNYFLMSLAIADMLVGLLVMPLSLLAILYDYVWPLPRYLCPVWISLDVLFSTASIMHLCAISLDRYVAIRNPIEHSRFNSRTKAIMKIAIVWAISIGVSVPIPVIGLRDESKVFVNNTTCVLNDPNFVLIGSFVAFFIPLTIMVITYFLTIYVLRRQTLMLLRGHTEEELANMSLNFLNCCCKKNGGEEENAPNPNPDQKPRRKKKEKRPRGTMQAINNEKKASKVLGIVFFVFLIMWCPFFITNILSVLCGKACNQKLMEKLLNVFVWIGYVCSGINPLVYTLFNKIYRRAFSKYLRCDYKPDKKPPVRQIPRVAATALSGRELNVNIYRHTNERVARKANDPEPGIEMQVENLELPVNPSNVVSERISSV

[12] = molecular target: T2, Serotonin 3 (5-HT3) receptor (Rattus norvegicus); test: The stimulation of cardiac 5-HT3 receptors evaluated by using von Bezold-Jarisch reflex test in urethane-anesthetized rats; pure agonist; format: functional; conditions: filed as agonist
[13] = molecular target: T2, Serotonin 3 (5-HT3) receptor (Rattus norvegicus); test: Dose required to stimulate cardiac 5-HT3 receptors evaluated by using von Bezold-Jarisch reflex test in urethane-anesthetized rats after intravenous administration; format: functional, organism-based
[14] = molecular target: T2, Serotonin 3 (5-HT3) receptor (Rattus norvegicus); test: The stimulation of cardiac 5-HT3 receptors evaluated by using von Bezold-Jarisch reflex test in urethane-anesthetized rats; pure antagonist; format: functional; conditions: filed as antagonist
NG108-15 [15] = test: Agonist/antagonist activity by observing the uptake of [14C]guanidinium, on the neuroblastoma-glioma hybrid NG108-15 cells; Not active at 10000 nm; format: functional, cell-based
[16] = molecular target: T1, Serotonin 3 (5-HT3) receptor; test: Inhibition of [3H]BRL-43694 binding to 5-hydroxytryptamine 3 receptor of rat cortical homogenate; Not active at 10000 nm
[17] = molecular target: T2, Serotonin 3 (5-HT3) receptor (Rattus norvegicus); test: The stimulation of cardiac 5-HT3 receptors evaluated by using von Bezold-Jarisch reflex test in urethane-anesthetized rats; partial agonist; format: functional; conditions: filed as partial agonist
[18] = molecular target: T1, Serotonin 3 (5-HT3) receptor; test: Inhibition of radiolabeled [3H]-Zacopride ligand binding to 5-hydroxytryptamine 3 receptor; format: protein-complex assay
[19] = molecular target: T2, Serotonin 3 (5-HT3) receptor (Rattus norvegicus); test: The stimulation of cardiac 5-HT3 receptors evaluated by using von Bezold-Jarisch reflex test in urethane-anesthetized rats; Partial agonist; format: functional; conditions: filed as partial agonist
[20] = molecular target: T4, 5-hydroxytryptamine receptor 2C; test: Inhibition of radiolabeled [3H]-Ketanserin ligand binding to 5-hydroxytryptamine 2C receptor

Chain of 5-hydroxytryptamine receptor 1B (P28564 whole entry): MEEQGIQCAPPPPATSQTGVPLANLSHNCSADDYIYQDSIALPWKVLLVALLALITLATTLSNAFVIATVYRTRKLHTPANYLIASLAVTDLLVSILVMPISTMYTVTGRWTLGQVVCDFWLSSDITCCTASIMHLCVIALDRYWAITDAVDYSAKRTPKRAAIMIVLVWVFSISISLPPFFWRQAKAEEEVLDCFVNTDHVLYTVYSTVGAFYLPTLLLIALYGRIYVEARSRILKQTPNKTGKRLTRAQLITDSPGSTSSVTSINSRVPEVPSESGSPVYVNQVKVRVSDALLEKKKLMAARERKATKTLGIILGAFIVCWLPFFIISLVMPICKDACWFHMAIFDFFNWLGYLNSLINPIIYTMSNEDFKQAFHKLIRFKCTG
Chain of 5-hydroxytryptamine receptor 4 (Q62758 whole entry): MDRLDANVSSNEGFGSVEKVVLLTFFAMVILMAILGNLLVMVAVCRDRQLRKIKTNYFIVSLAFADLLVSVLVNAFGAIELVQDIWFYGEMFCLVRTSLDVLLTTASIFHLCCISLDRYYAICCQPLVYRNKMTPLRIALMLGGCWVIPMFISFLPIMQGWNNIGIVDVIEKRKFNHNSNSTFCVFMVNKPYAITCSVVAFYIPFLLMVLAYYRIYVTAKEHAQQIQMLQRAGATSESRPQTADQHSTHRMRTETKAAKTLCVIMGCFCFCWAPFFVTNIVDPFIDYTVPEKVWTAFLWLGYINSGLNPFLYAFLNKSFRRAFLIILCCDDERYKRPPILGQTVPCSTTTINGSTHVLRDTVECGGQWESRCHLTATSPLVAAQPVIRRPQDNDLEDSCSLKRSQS
Chain of 5-hydroxytryptamine receptor 2A (P14842 whole entry): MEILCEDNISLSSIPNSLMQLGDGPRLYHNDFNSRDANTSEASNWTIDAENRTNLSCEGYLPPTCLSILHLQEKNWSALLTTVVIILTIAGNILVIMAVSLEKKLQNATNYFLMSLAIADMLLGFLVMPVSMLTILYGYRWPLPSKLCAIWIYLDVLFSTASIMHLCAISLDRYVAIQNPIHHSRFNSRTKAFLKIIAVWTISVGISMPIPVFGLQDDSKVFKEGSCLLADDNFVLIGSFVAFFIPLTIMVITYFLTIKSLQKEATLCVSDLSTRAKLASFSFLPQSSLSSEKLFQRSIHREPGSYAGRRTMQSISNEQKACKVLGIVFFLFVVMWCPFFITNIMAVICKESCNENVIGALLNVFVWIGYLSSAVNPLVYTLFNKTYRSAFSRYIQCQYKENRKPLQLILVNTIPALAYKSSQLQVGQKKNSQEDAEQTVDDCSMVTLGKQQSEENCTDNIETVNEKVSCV

Row | Structure (SMILES) | EC50 (NG108-15 [2]) [nM] | IC50 (Rattus norvegicus) [nM] | IC50 [4] [nM] | Efficacy (NG108-15 [10]) | ID50 [13] [mg/kg] | further results
1 | CN1CCN(c2nc3cc(F)ccc3n3cccc23)CC1 | 3 | 232 | 0.81 | Agonist | – | IC50 [1]: 124 nM; Ratio [3]: 17.5; ID50 [5]: 0.6 mg/kg; IC50 [6]: 138 nM; Behavior [7]: Antagonist; IC50 [8]: 371 nM; IC50 [9]: > 10 µM; IC50 [11]: 413 nM
2 | NCCc1c[nH]c2ccc(O)cc12 [SEROTONIN] | – | 369 | – | – | – | –
3 | CN1CCN(c2nc3ccccc3n3cccc23)CC1 | 10 | 214 | – | Agonist | – | IC50 [1]: 43 nM; IC50 [6]: 89 nM; IC50 [8]: 232 nM; IC50 [9]: > 10 µM; IC50 [11]: 780 nM
4 | CN1CCN(c2cnc3ccccc3n2)CC1 | 510 | – | 22 | Agonist | 0.06 | Behavior [12]: Agonist
5 | Fc1ccc2c(c1)nc(N1CCNCC1)c1cccn12 | 3.5 | 203 | 5.4 | Agonist | 0.01 | IC50 [1]: 489 nM; Ratio [3]: 37.5; IC50 [6]: 151 nM; IC50 [8]: 167 nM; IC50 [9]: > 10 µM; Behavior [14]: Antagonist; IC50 [11]: 2800 nM
6 | CN1CCN(c2nc3cc(C(F)(F)F)ccc3n3cccc23)CC1 | – | – | – | – | – | Efficacy (NG108-15 [15]): inactive; IC50 [16]: Not Active
7 | Cc1[nH]c2ccc(O)cc2c1CCN | – | – | 779 | – | – | –
8 | C=CCN1CCN(c2nc3cc(F)ccc3n3cccc23)CC1 | 76 | – | 22 | Agonist | 0.1 | Behavior [17]: Partial agonist
9 | CN1C[C@@H](NS(=O)(=O)N(C)C)C[C@@H]2c3cccc4c3c(cn4C)C[C@H]21 [MESULERGINE] | – | – | – | – | – | IC50 [18]: 2.13 nM
10 | CCN1CCN(c2nc3ccccc3n3cccc23)CC1 | 8 | – | 9 | Agonist | 0.1 | Behavior [14]: Antagonist
11 | CN1CCN(c2nc3c(F)cccc3n3cccc23)CC1 | 4.7 | – | 9.5 | Agonist | 0.12 | Behavior [19]: Partial agonist
12 | CN1CCN(c2nc3cccc(F)c3n3cccc23)CC1 | 6.5 | – | 0.44 | Agonist | 0.12 | Behavior [19]: Partial agonist
13 | c1ccc2nc(N3CCNCC3)ccc2c1 [QUIPAZINE] | 25 | 204 | 6.2 | Agonist | – | IC50 [1]: 1400 nM; IC50 [8]: 380 nM; IC50 [9]: > 10 µM; IC50 [11]: 470 nM
14 | CCCN1CCN(c2nc3cccc(F)c3n3cccc23)CC1 | 73 | – | 82 | Agonist | 0.3 | Behavior [19]: Partial agonist
15 | CCC(CC)NC(=O)[C@@H]1C=C2c3cccc4c3c(cn4C)C[C@H]2N(C)C1 [METHSERGIDE] | – | – | – | – | – | IC50 [20]: 3.1 nM
16 | Fc1cccc2nc(N3CCNCC3)c3cccn3c12 | 98 | 1130 | 3.9 | Agonist | 0.07 | IC50 [1]: 761 nM; IC50 [6]: 268 nM; IC50 [8]: 106 nM; IC50 [9]: > 10 µM; Behavior [14]: Antagonist; IC50 [11]: 784 nM
17 | C=CCN1CCN(c2nc3ccccc3n3cccc23)CC1 | 8.2 | – | 11 | Agonist | 0.18 | Behavior [17]: Partial agonist
18 | CCCN1CCN(c2nc3cc(F)ccc3n3cccc23)CC1 | 580 | – | 88 | Agonist | 0.2 | Behavior [17]: Partial agonist
19 | C=CCN1CCN(c2nc3cccc(F)c3n3cccc23)CC1 | 30 | – | 28 | Agonist | 0.075 | Behavior [19]: Partial agonist
20 | CCCN1CCN(c2nc3ccccc3n3cccc23)CC1 | 8.5 | – | 51 | Agonist | 0.24 | Behavior [19]: Partial agonist
